Target: human GPR119 (Homo sapiens (Human), UniProt Q8TDV5)
Assay: AlphaScreen cAMP assay in MIN6 cells stably transfected with human GPR119
Format: cell-based
Settings: Min-6/hGPR119 cells, 45 min incubation at room temperature
Description: The compounds of formula I according to the invention modulate the activity of the G-protein-coupled receptor GPR119. The effect of the compounds on the activation of GPR119 and on the stimulation of intracellular cAMP concentration is determined using the AlphaScreen cAMP Assay Kit (Cat. No. #6760625R) made by PerkinElmer.
MIN6 cells [Miyazaki J et al. Endocrinology. 1990 July; 127(1):126-32] are stably transfected with an expression vector for human GPR119 cDNA (Acc. No. NP_848566). Min-6/hGPR119 cells are cultured in DMEM, 10% FBS, 50 μM β-mercaptoethanol, 0.3 mg/mL Geniticin, 2 mM GlutaMAX at 37° C. 5% CO2. For the assay, the cells are seeded in Optiplates (white, 384-well, 160W-barcoded, TC, sterile with lid, Cat. No. #6007688 (Perkin Elmer); 10000 cells/well; 50 μl). The plates covered with lids are then incubated for 24 hours at 37° C./5% CO2. After the medium is aspirated from the wells completely, 10 μl of the test compound are added, the compounds are diluted using stimulating buffer (140 mM NaCl, 3.6 mM KCl, 0.5 mM NaH2PO4, 0.5 mM MgSO4, 1.5 mM CaCl2, 10 mM Hepes, 5 mM NaHCO3; pH 7.4. 0.5 mM IBMX and 0.1% BSA, the final DMSO concentration is 1%). After 45 minutes incubation at room temperature (approx. 20° C.), the cAMP concentrations are determined using the AlphaScreen cAMP Assay Kit (Cat. No. #6760625R from PerkinElmer).

Chain of human GPR119 (Q8TDV5 whole entry): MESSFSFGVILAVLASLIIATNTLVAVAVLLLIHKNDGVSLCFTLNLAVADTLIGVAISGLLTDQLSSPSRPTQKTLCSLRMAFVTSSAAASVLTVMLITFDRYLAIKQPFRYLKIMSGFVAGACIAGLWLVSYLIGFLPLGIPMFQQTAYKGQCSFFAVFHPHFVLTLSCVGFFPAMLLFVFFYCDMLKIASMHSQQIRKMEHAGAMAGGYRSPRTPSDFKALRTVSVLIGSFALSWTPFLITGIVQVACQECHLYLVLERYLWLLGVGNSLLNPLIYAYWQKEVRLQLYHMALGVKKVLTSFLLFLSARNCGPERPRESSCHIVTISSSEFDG

| Structure (SMILES) | EC50 [µM] |
| --- | --- |
| CNC(=O)Nc1nc(-c2ccc(C(=O)N(C3CC3)C3CCN(C(=O)OC(C)(C)C)CC3)cc2)ns1 [Example 73, 4-(Cyclopropyl-{4-[5-(3-methyl-ureido)-[1,2,4]thiadiazol-3-yl]-benzoyl}-amino)-piperidine-1-carboxylic acid tert-butyl ester] | 0.5 |
| CC(C)(C)OC(=O)N1CCC(N(C(=O)c2ccc(-c3cccs3)cc2)C2CC2)CC1 [Example 58, 4-[Cyclopropyl-(4-thiophen-2-yl-benzoyl)-amino]-piperidine-1-carboxylic acid tert-butyl ester] | 0.214 |
| CC(C)(C)OC(=O)N1CCC(N(C(=O)c2ccc(-c3ccc(CO)cc3)cc2)C2CC2)CC1 [Example 98, 4-[Cyclopropyl-(4′-hydroxymethyl-biphenyl-4-carbonyl)-amino]-piperidine-1-carboxylic acid tert-butyl ester] | 0.068 |
| CNS(=O)(=O)c1ccc(-c2ccc(C(=O)N(C3CC3)C3CCN(C(=O)OC(C)(C)C)CC3)cc2)cc1 [Example 111, 4-[Cyclopropyl-(4′-methylsulfamoyl-biphenyl-4-carbonyl)-amino]-piperidine-1-carboxylic acid tert-butyl ester] | 0.111 |
| CC(C)(C)OC(=O)N1CCC(N(C(=O)c2ccc(-c3ccc(S(C)(=O)=O)cc3F)cc2)C2CC2)CC1 [Example 110, 4-[Cyclopropyl-(2′-fluoro-4′-methanesulfonyl-biphenyl-4-carbonyl)-amino]-piperidine-1-carboxylic acid tert-butyl ester] | 0.044 |
| CN(C)Cc1ccc(-c2ccc(C(=O)N(C3CC3)C3CCN(C(=O)OC(C)(C)C)CC3)cc2)cc1 [Example 112, 4-[Cyclopropyl-(4′-dimethylaminomethyl-biphenyl-4-carbonyl)-amino]-piperidine-1-carboxylic acid tert-butyl ester] | 1.74 |
| CC(C)(C)OC(=O)N1CCC(N(C(=O)c2ccc(-c3ccncc3C#N)cc2)C2CC2)CC1 [Example 29, 4-{[4-(3-Cyano-pyridin-4-yl)-benzoyl]-cyclopropyl-amino}-piperidine-1-carboxylic acid tert-butyl ester] | 0.027 |
| COC(=O)N1CCC(N(C(=O)c2ccc(-c3cnco3)cc2)C2CC2)CC1 [Example 116, 4-[Cyclopropyl-(4-oxazol-5-yl-benzoyl)-amino]-piperidine-1-carboxylic acid methyl ester] | 1.57 |
| CC1(OC(=O)N2CCC(N(C(=O)c3ccc(-c4ccc(S(C)(=O)=O)cn4)cc3)C3CC3)CC2)CC1 [Example 19, 4-{Cyclopropyl-[4-(5-methanesulfonyl-pyridin-2-yl)-benzoyl]-amino}-piperidine-1-carboxylic acid 1-methyl-cyclopropyl ester] | 1.77 |
| Cc1ccc(-c2ccc(C(=O)N(C3CC3)C3CCN(C(=O)OC(C)(C)C)CC3)cc2)nn1 [Example 16, 4-{Cyclopropyl-[4-(6-methyl-pyridazin-3-yl)-benzoyl]-amino}-piperidine-1-carboxylic acid tert-butyl ester] | 0.076 |
| CC(C)(C)OC(=O)N1CC[C@H](N(C(=O)c2ccc(-c3cnco3)cc2)C2CC2)[C@@H](F)C1 (single isomer, unassigned) [Example 38] | 0.174 |
| Cc1cncnc1-c1ccc(C(=O)N(C2CC2)C2CCN(C(=O)OC(C)(C)C)CC2)cc1 [Example 27, 4-{Cyclopropyl-[4-(5-methyl-pyrimidin-4-yl)-benzoyl]-amino}-piperidine-1-carboxylic acid tert-butyl ester] | 0.469 |
| CC(C)(C)OC(=O)N1CC[C@H](N(C(=O)c2ccc(-c3cnco3)cc2)C2CC2)[C@H](F)C1 (single isomer, unassigned) [Example 40] | 0.002 |
| CC(C)(C)OC(=O)N1CCC(N(C(=O)c2ccc(-c3cncs3)cc2)C2CC2)CC1 [Example 6, 4-[Cyclopropyl-(4-thiazol-5-yl-benzoyl)-amino]-piperidine-1-carboxylic acid tert-butyl ester] | 0.032 |
| CC(C)(C)OC(=O)N1CCC(N(C(=O)c2ccc(-c3ccsc3)cc2)C2CC2)CC1 [Example 80, 4-[Cyclopropyl-(4-thiophen-3-yl-benzoyl)-amino]-piperidine-1-carboxylic acid tert-butyl ester] | 0.345 |
| CC(C)(C)OC(=O)N1CCC(N(C(=O)c2ccc(-c3ccc(CC#N)cc3)cc2)C2CC2)CC1 [Example 91, 4-[(4′-Cyanomethyl-biphenyl-4-carbonyl)-cyclopropyl-amino]-piperidine-1-carboxylic acid tert-butyl ester] | 0.086 |

Second part, the molecule after the results:

| EC50 [µM] | Structure (SMILES) |
| --- | --- |
| 0.075 | CCOC(=O)c1cnn(-c2ccc(C(=O)N(C3CC3)C3CCN(C(=O)OC(C)(C)C)CC3)cc2)c1C [Example 78, 4-{Cyclopropyl-[4-(4-ethoxycarbonyl-5-methyl-pyrazol-1-yl)-benzoyl]-amino}-piperidine-1-carboxylic acid tert-butyl ester] |
| 0.039 | CC(C)(C)OC(=O)N1CCC(N(C(=O)c2ccc(-c3ccc(C(N)=O)cc3)cc2)C2CC2)CC1 [Example 102, 4-[(4′-Carbamoyl-biphenyl-4-carbonyl)-cyclopropyl-amino]-piperidine-1-carboxylic acid tert-butyl ester] |
| 0.461 | CC(C)(C)OC(=O)N1CCC(N(C(=O)c2ccc(-c3ccc(O)nc3)cc2)C2CC2)CC1 [Example 108, 4-{Cyclopropyl-[4-(6-hydroxy-pyridin-3-yl)-benzoyl]-amino}-piperidine-1-carboxylic acid tert-butyl ester] |
| 0.24 | CC(C)(C)OC(=O)N1CCC(N(C(=O)c2ccc(-c3cn[nH]c3)cc2)C2CC2)CC1 [Example 12, 4-{Cyclopropyl-[4-(1H-pyrazol-4-yl)-benzoyl]-amino}-piperidine-1-carboxylic acid tert-butyl ester] |
| 0.137 | CC(C)(C)OC(=O)N1CCC(N(C(=O)c2ccc(-n3cnnn3)cc2)C2CC2)CC1 [Example 22, 4-[Cyclopropyl-(4-tetrazol-1-yl-benzoyl)-amino]-piperidine-1-carboxylic acid tert-butyl ester] |
| 0.203 | CC(C)(C)OC(=O)N1CCC(N(C(=O)c2ccc(-c3ccc(OC(F)(F)F)cc3)cc2)C2CC2)CC1 [Example 88, 4-[Cyclopropyl-(4′-trifluoromethoxy-biphenyl-4-carbonyl)-amino]-piperidine-1-carboxylic acid tert-butyl ester] |
| 0.019 | CC1(OC(=O)N2CCC(N(C(=O)c3ccc(-c4ccncc4C#N)cc3)C3CC3)CC2)CC1 [Example 32, 4-{[4-(3-Cyano-pyridin-4-yl)-benzoyl]-cyclopropyl-amino}-piperidine-1-carboxylic acid 1-methyl-cyclopropyl ester] |
| 0.034 | CC(C)(C)OC(=O)N1CCC(N(C(=O)c2ccc(-c3ccc(C#N)nc3)cc2)C2CC2)CC1 [Example 100, 4-{[4-(6-Cyano-pyridin-3-yl)-benzoyl]-cyclopropyl-amino}-piperidine-1-carboxylic acid tert-butyl ester] |
| 0.884 | Cc1nc(-c2ccc(C(=O)N(C3CC3)C3CCN(C(=O)OC(C)(C)C)CC3)cc2)co1 [Example 5, 4-{Cyclopropyl-[4-(2-methyl-oxazol-4-yl)-benzoyl]-amino}-piperidine-1-carboxylic acid tert-butyl ester] |
| 0.102 | C=CCOC(=O)N1CCC(N(C(=O)c2ccc(-c3cnco3)cc2)C2CC2)CC1 [Example 127, 4-[Cyclopropyl-(4-oxazol-5-yl-benzoyl)-amino]-piperidine-1-carboxylic acid allyl ester] |
| 0.015 | CC1CN(C(=O)OC(C)(C)C)CCC1N(C(=O)c1ccc(-c2cnco2)cc1)C1CC1 (centres unmarked) [Example 2, 4-[Cyclopropyl-(4-oxazol-5-yl-benzoyl)-amino]-3-methyl-piperidine-1-carboxylic acid tert-butyl ester] |
| 0.291 | Cc1c(-c2ccccc2)ncn1-c1ccc(C(=O)N(C2CC2)C2CCN(C(=O)OC(C)(C)C)CC2)cc1 [Example 83, 4-{Cyclopropyl-[4-(5-methyl-4-phenyl-imidazol-1-yl)-benzoyl]-amino}-piperidine-1-carboxylic acid tert-butyl ester] |
| 0.169 | CC(C)(C)OC(=O)N1CCC(N(C(=O)c2ccc(-c3cnco3)c(N)c2)C2CC2)CC1 [Example 8, 4-[(3-Amino-4-oxazol-5-yl-benzoyl)-cyclopropyl-amino]-piperidine-1-carboxylic acid tert-butyl ester] |
| 0.423 | Cn1cc(-c2ccc(C(=O)N(C3CC3)C3CCN(C(=O)OC(C)(C)C)CC3)cc2)cn1 [Example 13] |
| 0.051 | CCNC(=O)c1ccc(-c2ccc(C(=O)N(C3CC3)C3CCN(C(=O)OC(C)(C)C)CC3)cc2)cc1 [Example 103, 4-[Cyclopropyl-(4′-ethylcarbamoyl-biphenyl-4-carbonyl)-amino]-piperidine-1-carboxylic acid tert-butyl ester] |
| 0.65 | COc1cc(C(=O)N(C2CC2)C2CCN(C(=O)OC(C)(C)C)CC2)ccc1-c1cnco1 [Example 9, 4-[Cyclopropyl-(3-methoxy-4-oxazol-5-yl-benzoyl)-amino]-piperidine-1-carboxylic acid tert-butyl ester] |

Source: patent US9469631B2 (Boehringer Ingelheim International GmbH, priority 2012, dated 2016)
